Laboratory results as given in patent US8865738B2, “5-membered heterocyclic compound cyclopenta[C]pyrrolylalkylcarbamate derivatives, preparation thereof, and therapeutic use thereof” (Sanofi, priority 2009, dated 2014).

Assays:
[1] = target: T1, FAAH (Fatty Acid Amide Hydrolase) (Mus musculus, UniProt O08914); test: radioenzymatic test, hydrolysis of anandamide [ethanolamine 1-3H] with FAAH (protocol 1); assay type: biochemical; settings: mouse brain membrane homogenate, anandamide 10 μM, 20 min preincubation at 25° C., read-out: IC50 (concentration that inhibits 50% of the control enzymatic activity of FAAH)
T1 construct: The membrane homogenates are prepared extemporaneously by homogenizing the tissues; from tissue; host or cells: mouse brain (minus the cerebellum), membrane homogenate
T1 sequence (O08914 1-579): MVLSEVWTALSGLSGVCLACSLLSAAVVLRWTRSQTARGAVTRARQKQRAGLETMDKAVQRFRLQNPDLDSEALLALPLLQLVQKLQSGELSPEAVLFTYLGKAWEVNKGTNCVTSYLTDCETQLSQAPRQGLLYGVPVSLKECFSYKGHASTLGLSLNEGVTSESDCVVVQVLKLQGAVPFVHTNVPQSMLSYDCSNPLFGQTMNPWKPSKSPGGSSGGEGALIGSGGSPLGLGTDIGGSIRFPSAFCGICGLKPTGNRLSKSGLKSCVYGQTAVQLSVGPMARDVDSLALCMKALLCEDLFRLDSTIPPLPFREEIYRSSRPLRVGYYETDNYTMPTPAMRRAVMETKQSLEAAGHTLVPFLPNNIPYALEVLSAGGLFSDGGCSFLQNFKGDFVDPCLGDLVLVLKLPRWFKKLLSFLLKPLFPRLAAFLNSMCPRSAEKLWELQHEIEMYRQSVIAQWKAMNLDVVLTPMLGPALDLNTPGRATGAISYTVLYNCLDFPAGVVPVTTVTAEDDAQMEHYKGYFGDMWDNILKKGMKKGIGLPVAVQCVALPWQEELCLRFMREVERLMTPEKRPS
Procedure: (§1) The compounds of the invention underwent pharmacological tests to determine their inhibitory effect on the enzyme FAAH (Fatty Acid Amide Hydrolase).
Thus, mouse brains (minus the cerebellum) are removed and stored at −80° C. The membrane homogenates are prepared extemporaneously by homogenizing the tissues using a Precellys® machine in reaction buffer (10 mM Tris-HCl, pH=8, 150 mM NaCl and 1 mM ethylenediaminetetraacetic acid (EDTA)). The enzymatic reaction is performed in 96-well Multiscreen filtration plates in a final volume of 70 μl. Reaction buffer supplemented with fatty acid-free bovine serum albumin (BSA, 1 mg/ml) is used for the enzymatic reaction and the dilution of the compounds and of the anandamide [ethanolamine 1-^3H]. The reaction buffer containing BSA (43 μl/well), the diluted test compounds at various concentrations (7 μl/well containing 1% DMSO) and the membrane preparation (10 μl/well, i.e. 200 μg of tissue per test) are successively added to the wells. After preincubation for 20 minutes of the compounds with the enzyme at 25° C., the reaction is started by adding anandamide [ethanolamine 1-^3H](specific activity of 15-20 Ci/mmol) diluted with cold anandamide (10 μl/well, final concentration of 10 μM, 0.01 μCi per test). After incubation for 20 minutes at 25° C., the enzymatic reaction is stopped by adding a 5M solution of activated carbon prepared in 1.5M NaCl buffer and 0.5M HCl (50 μl/well). The mixture is stirred for 10 minutes then the aqueous phase containing the ethanolamine [1-^3H] is recovered by filtration under vacuum and counted by liquid scintillation.

[2] = target: T1, FAAH (Fatty Acid Amide Hydrolase); test: fluorescent enzymatic test, hydrolysis of AAMC with FAAH (protocol 2); assay type: biochemical; settings: mouse brain homogenate, AAMC 10 μM, 40 min at 37° C., read-out: IC50 (concentration that inhibits 50% of the control enzymatic activity of FAAH)
Procedure: as §1
Thus, mouse brains (minus the cerebellum) are withdrawn and stored at −80° C. The brain homogenates are prepared extemporaneously by homogenizing the tissues using a Precellys® machine in reaction buffer (10 mM Tris-HCl, pH=8, 150 mM NaCl and 1 mM ethylenediamine-tetraacetic acid (EDTA)). The enzymatic reaction is performed in black polystyrene 384-well plates in a final volume of 50 μL. Reaction buffer supplemented with fatty acid-free bovine serum albumin (BSA, 1 mg/ml) is used for the enzymatic reaction, the dilution of the compounds and the dilution of the AAMC. Reaction buffer containing the BSA (25 μl/well), the diluted test compounds at various concentrations (5 μl/well containing 1% DMSO) and the membrane preparation (10 μL/well, i.e. 200 μg of tissue per test) are successively added to the wells. After preincubation for 20 minutes of the compounds with the enzyme at 25° C., the reaction is started by adding 10 μL of substrate per well (AAMC, final concentration of 10 μM). After incubation for 40 minutes at 37° C., the aminomethyl coumarin (AMC) produced is measured by fluorescent counting (Envision plate reader).

IC50 [1] [nM]	melting point [°C]	IC50 [2] [nM]	SMILES
200			O=C(NC[C@H]1C[C@@H]2CN(c3cccc(C(F)(F)F)n3)C[C@@H]2C1)OCc1cscn1 [Compound No. 1, thiazol-4-ylmethyl ({(3aR,5s,6aS)-2-[6-(trifluoro-methyl)pyrid-2-yl]octahydrocyclopenta[c]pyrrol-5-yl}methyl)carbamate (exo)]
0.98	129 to 131		O=C(NC[C@H]1C[C@@H]2CN(c3ccc(-c4ccc(F)cc4)cn3)C[C@@H]2C1)OCc1cscn1 [Compound No. 3, thiazol-4-ylmethyl ({(3aR,5s,6aS)-2-[5-(4-fluoro-phenyl)pyrid-2-yl]octahydrocyclopenta[c]pyrrol-5-yl}-methyl)carbamate (exo)]
1.1	136 to 138		Cn1ncnc1COC(=O)NC[C@H]1C[C@@H]2CN(c3cccc(-c4cncc(F)c4)n3)C[C@@H]2C1 [Compound No. 8, (1-methyl-1H-1,2,4-triazol-5-yl)methyl {[(3aR,5s,6aS)-2-(5′-fluoro-2,3′-bipyrid-6-yl)octahydrocyclopenta[c]-pyrrol-5-yl]methyl}carbamate (exo)]
2.4	157 to 159		CNC(=O)c1cc(COC(=O)NCC[C@@H]2C[C@@H]3CN(c4ccc(Br)cn4)C[C@@H]3C2)on1 [Compound No. 10, [3-(methylcarbamoyl)isoxazol-5-yl]methyl {2-[(3aR,5r,6aS)-2-(5-bromopyrid-2-yl)octahydrocyclopenta[c]-pyrrol-5-yl]ethyl}carbamate (endo)]
	220 to 222	12	CNC(=O)c1cc(COC(=O)NC2C3CN(c4ccc5cc(F)ccc5n4)CC32)on1 (centres unmarked) [Compound No. 14, [3-(methylcarbamoyl)isoxazol-5-yl]methyl [3-(6-fluoro-quinolin-2-yl)-3-azabicyclo[3.1.0]hex-6-yl]carbamate]
8.5			Cn1cc(-c2ccc(N3CC4CC(CNC(=O)OCc5cscn5)CC4C3)nc2)cn1 [compound 4, thiazol-4-ylmethyl ({(3aR,5s,6aS)-2-[5-(1-methyl-1H-pyrazol-4-yl)pyrid-2-yl]octahydrocyclopenta[c]pyrrol-5-yl}methyl)carbamate (exo)]
170			Cn1ncnc1COC(=O)NC[C@H]1C[C@@H]2CN(c3ccc(-c4ccc(F)cc4)cn3)C[C@@H]2C1 [compound 7, (1-methyl-1H-1,2,4-triazol-5-yl)methyl ({(3aR,5s,6aS)-2-[5-(4-fluorophenyl)pyrid-2-yl]octahydrocyclopenta[c]-pyrrol-5-yl}methyl)carbamate (exo)]
